Test results as given in the supplement of paper PMC10733146.

How the values were obtained:
Assay in all cases: viability relative to DMSO control (fraction); higher = less drug effect (more viable cells)
Conditions in all cases: 48 h
[1] = tested on: primary ALL patient cells (S048)
Outline: (§1)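 Primary mononuclear tumour cells (Ficoll-isolated from blood or bone marrow, or processed lymph node; fresh or cryopreserved) were plated at 4 × 10^4 cells per well in 384-well plates with pre-plated compounds at five concentrations, one well each. Medium was RPMI-1640 with penicillin/streptomycin, L-glutamine and human serum, at 37 °C and 5% CO2 for 48 h. Viability was read as CellTiter-Glo luminescence relative to the median of 16 inner DMSO wells.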

[2] = tested on: primary AML patient cells (S002)
Outline: as §1

[3] = tested on: primary AML patient cells (S011)
Outline: as §1

[4] = tested on: primary AML patient cells (S019)
Outline: as §1

[5] = tested on: primary AML patient cells (S021)
Outline: as §1

[6] = tested on: primary AML patient cells (S025)
Outline: as §1

[7] = tested on: primary AML patient cells (S037)
Outline: as §1

[8] = tested on: primary AML patient cells (S055)
Outline: as §1

[9] = tested on: primary AML patient cells (S081)
Outline: as §1

[10] = tested on: primary AML patient cells (S089)
Outline: as §1

[11] = tested on: primary AML patient cells (S091)
Outline: as §1

[12] = tested on: primary DLBCL patient cells (S049)
Outline: as §1

[13] = tested on: primary DLBCL patient cells (S076)
Outline: as §1

[14] = tested on: primary FL patient cells (S022)
Outline: as §1

[15] = tested on: primary MCL patient cells (S068)
Outline: as §1

[16] = tested on: primary T-NHL patient cells (S058)
Outline: as §1

[17] = tested on: primary T-PLL patient cells (S008)
Outline: as §1

In the case of `COc1cccc2c1C(=O)c1c(O)c3c(c(O)c1C2=O)C[C@@](O)(C(=O)CO)C[C@@H]3O[C@H]1C[C@H](N)[C@H](O)[C@H](C)O1` [Doxorubicin], the viability ([1]; 0.0016 µM) is reported as 1.06, the viability ([1]; 0.008 µM) is reported as 1.01 and the viability ([1]; 0.04 µM) is reported as 0.418. The viability ([1]; 0.2 µM) was 0.0592, the viability ([1]; 1 µM) was 0.0152 and the viability ([2]; 0.0016 µM) was 1.06. For the same compound, the viability ([2]; 0.008 µM) was 1.08, the viability ([2]; 0.04 µM) was 0.695 and the viability ([2]; 0.2 µM) was 0.401. For the same compound, the viability ([2]; 1 µM) was 0.33, the viability ([3]; 0.0016 µM) was 1.05 and the viability ([3]; 0.008 µM) was 1.04. The viability ([3]; 0.04 µM) was 0.973, the viability ([3]; 0.2 µM) was 0.507 and the viability ([3]; 1 µM) was 0.0215. It also gave a viability ([4]; 0.0016 µM) of 1.02, a viability ([4]; 0.008 µM) of 1.06 and a viability ([4]; 0.04 µM) of 0.828. The viability ([4]; 0.2 µM) was 0.481, the viability ([4]; 1 µM) was 0.219 and the viability ([5]; 0.0016 µM) was 0.994. The viability ([5]; 0.008 µM) was 1.01, the viability ([5]; 0.04 µM) was 0.929 and the viability ([5]; 0.2 µM) was 0.438. It also gave a viability ([5]; 1 µM) of 0.182, a viability ([6]; 0.0016 µM) of 0.99 and a viability ([6]; 0.008 µM) of 1.01. For the same compound, the viability ([6]; 0.04 µM) was 0.848, the viability ([6]; 0.2 µM) was 0.501 and the viability ([6]; 1 µM) was 0.119. The viability ([7]; 0.0016 µM) was 1.06, the viability ([7]; 0.008 µM) was 1.05 and the viability ([7]; 0.04 µM) was 0.979. It also gave a viability ([7]; 0.2 µM) of 0.737, a viability ([7]; 1 µM) of 0.447 and a viability ([8]; 0.0016 µM) of 1.02. For the same compound, the viability ([8]; 0.008 µM) was 0.99, the viability ([8]; 0.04 µM) was 1.02 and the viability ([8]; 0.2 µM) was 0.947. The viability ([8]; 1 µM) was 0.487, the viability ([9]; 0.0016 µM) was 1.05 and the viability ([9]; 0.008 µM) was 1.09. For the same compound, the viability ([9]; 0.04 µM) was 1.12, the viability ([9]; 0.2 µM) was 1.18 and the viability ([9]; 1 µM) was 0.0358. It also gave a viability ([10]; 0.0016 µM) of 1.01, a viability ([10]; 0.008 µM) of 1 and a viability ([10]; 0.04 µM) of 1.01. It also gave a viability ([10]; 0.2 µM) of 0.665, a viability ([10]; 1 µM) of 0.187 and a viability ([11]; 0.0016 µM) of 0.983. It also gave a viability ([11]; 0.008 µM) of 0.905, a viability ([11]; 0.04 µM) of 0.737 and a viability ([11]; 0.2 µM) of 0.637. The viability ([11]; 1 µM) was 0.499, the viability ([12]; 0.0016 µM) was 1.14 and the viability ([12]; 0.008 µM) was 1. It also gave a viability ([12]; 0.04 µM) of 0.827, a viability ([12]; 0.2 µM) of 0.3 and a viability ([12]; 1 µM) of 0.0345. It also gave a viability ([13]; 0.0016 µM) of 1.05, a viability ([13]; 0.008 µM) of 1.1 and a viability ([13]; 0.04 µM) of 0.822. It also gave a viability ([13]; 0.2 µM) of 0.453, a viability ([13]; 1 µM) of 0.034 and a viability ([14]; 0.0016 µM) of 1.12. The viability ([14]; 0.008 µM) was 1.17, the viability ([14]; 0.04 µM) was 0.892 and the viability ([14]; 0.2 µM) was 0.281. For the same compound, the viability ([14]; 1 µM) was 0.183, the viability ([15]; 0.0016 µM) was 0.995 and the viability ([15]; 0.008 µM) was 0.978. For the same compound, the viability ([15]; 0.04 µM) was 0.761, the viability ([15]; 0.2 µM) was 0.307 and the viability ([15]; 1 µM) was 0.0522. For the same compound, the viability ([16]; 0.0016 µM) was 1.03, the viability ([16]; 0.008 µM) was 0.96 and the viability ([16]; 0.04 µM) was 0.823. The viability ([16]; 0.2 µM) was 0.525, the viability ([16]; 1 µM) was 0.145 and the viability ([17]; 0.0016 µM) was 1.04. It also gave a viability ([17]; 0.008 µM) of 1.15, a viability ([17]; 0.04 µM) of 0.972 and a viability ([17]; 0.2 µM) of 0.958. It also gave a viability ([17]; 1 µM) of 0.607.
